IC50 data for 53 compounds are collected here from ChEMBL document CHEMBL2094269, “WEHI/Eskitis Trypanosoma b. brucei screening data”.

“And” between values parts separate entries of the source, which are not always exact repeats. Identical values can stand only once. Where only a bound is given, the exact number is not on record here.

Data set [1] has as its system Trypanosoma brucei brucei. The experiment in a line: microbe, parasite or virus in culture. The class given is functional, organism-based, STIB 795.
Description: DNDI: Inhibition of Human African Trypanosomiasis (HAT), STIB 795, in vitro
The nature of data set [2]: DNDI: Cytotoxicity against human MRC-5 lung fibroblast cells. The conditions noted are these: IC50.

As usually defined, the IC50 is the concentration that inhibits the measured activity by half. For the compound `COc1ccc(Nc2nc3ccccc3c(=O)o2)cc1`, the IC50 is 0.435 µM in data set [1] (Trypanosoma brucei, STIB 795) and above 20.8 µM in data set [2].
The corresponding values for `CCCC[n+]1c(/C=C2/C=CN(CC)c3ccc(C)cc32)ccc2ccccc21` are 0.362 µM and above 4.17 µM.
With `CC(Nc1nc(N2CCNCC2)nc2ccccc12)c1ccccc1` (stereo unspecified), the IC50 in data set [1] (Trypanosoma brucei, STIB 795) was 1.47 µM; in data set [2], above 4.17 µM.
For `COc1c(S(=O)(=O)c2ccc(C)c(F)c2)cnc2ccc(Cl)cc12`, in that order: 3.1 µM and above 20.8 µM.
The corresponding values for `Cc1ccc(C(OCC(C)(C)C[N+](C)(C)C)c2ccccc2)cc1` (stereo unspecified) are 6.71 µM and above 41.7 µM.
For `Cc1ccc(C(=O)C(CO)n2ccnc2)cc1` (stereo unspecified), in that order: 2.05 µM and above 41.7 µM.
As to `CCCCn1c(=N)n(CC(O)c2ccc(Br)cc2)c2ccccc21` (stereo unspecified), the IC50 is 5.32 µM in data set [1]; 5.24 µM in data set [1] (Trypanosoma brucei, STIB 795); above 20.8 µM in data set [2].
As to `O=C1c2cccc3cccc(c23)C(=O)N1CCNCCO`, the IC50 in data set [1] (Trypanosoma brucei, STIB 795) was 4.5 µM; in data set [2], above 4.17 µM.
As for `COc1ccc(/C=N/NC(=O)C(OC)c2ccccc2)c(OC)c1OC` (stereo unspecified), the IC50 was 2.27 µM in data set [1] (Trypanosoma brucei, STIB 795) and above 4.17 µM in data set [2].
The corresponding values for `Clc1ccc(C[n+]2cc(-c3ccccc3)n3c2CCC3)c(Cl)c1` are 5.23 µM and above 41.7 µM.
The corresponding values for `CC1(C)CC(=S)C=C(N2CCCCC2)C1` are 1.95 µM and above 41.7 µM.
For `O=S(=O)(Nc1ccc(O)c(-c2c(O)ccc3ccccc23)c1)c1cccs1`, the IC50 in data set [1] (Trypanosoma brucei, STIB 795) was 5 µM; in data set [2], above 41.7 µM.
With `O=C(NCCc1nc(-c2ccccc2)cs1)C1(c2ccccc2)CC1`, the 50% inhibitory concentration (IC50) was 4.88 µM in data set [1]; 5.81 µM in data set [1] (Trypanosoma brucei, STIB 795); above 41.7 µM in data set [2].
As for `COc1cccc(C2=NC(c3cccnc3)NC(c3ccccc3O)C2)c1` (stereo unspecified), the IC50 is 1.5 µM in data set [1] (Trypanosoma brucei, STIB 795) and above 20.8 µM in data set [2].
For `COc1ccc2c(c1)C(=NN=C(N)N)c1cc(OC)ccc1-2`, in that order: 4.23 µM and above 41.7 µM.
`CN(C)CCCN(C)Cc1ccccc1Sc1ccc2ccccc2c1`: the IC50 in data set [1] (Trypanosoma brucei, STIB 795) was 2.57 µM; in data set [2] it was above 41.7 µM.
For `C=CCN(CC=C)Cc1c(O)ccc2c(=O)c(-c3ccccc3Cl)coc12`, the IC50 is 5.3 µM in data set [1]; 5.19 µM in data set [1] (Trypanosoma brucei, STIB 795); above 41.7 µM in data set [2].
For `CN(C)c1ccc(C2=Nc3cccc4cccc2c34)cc1`, the concentration for half-maximal inhibition (IC50) in data set [1] (Trypanosoma brucei, STIB 795) was 0.434 µM; in data set [2], above 41.7 µM.
The corresponding values for `O=C1c2ccccc2C(=O)c2c1ccc1c(=O)o[nH]c21` are 4.64 µM and above 41.7 µM.
The corresponding values for `Clc1cc2c(c3ncccc13)OCN(CC1CCCO1)C2` (stereo unspecified) are 6.81 µM and 6.72 µM.
The corresponding values for `CN1CCN(c2nc(Nc3ccc(F)cc3)nc(Nc3ccc(F)cc3)n2)CC1` are 5.11 µM and above 41.7 µM.
Consider `COc1ccc(C(=O)O/N=C(\N)Cc2ccc(Cl)cc2)c(OC)c1`, for which the half-inhibitory concentration (IC50) is 0.104 µM in data set [1] (Trypanosoma brucei, STIB 795) and above 20.8 µM in data set [2].
For `COc1ccc(CCON2C(N)=NC(N)=NC2(C)C)cc1`, in that order: at most 3.11 µM and above 4.17 µM.
The corresponding values for `CCc1c(C)nc(-n2nc(C)cc2NC(=O)c2ccccc2Cl)[nH]c1=O` are 2.88 µM and above 20.8 µM.
The corresponding values for `CCCCc1c(C)[nH]n(-c2nc3ccccc3[nH]2)c1=O` are 0.895 µM and above 1.04 µM.
For `Cc1cc2c(c(=O)o1)C(c1ccc(Br)s1)C(C#N)=C(N)O2` (stereo unspecified), the IC50 in data set [1] was 5.05 µM and > 10.4 µM; in data set [2], above 41.7 µM.
With `CC(C)(C)c1ccc(Cn2c(=N)n(CCO)c3ccccc32)cc1`, the IC50 is 4.96 µM in data set [1] (Trypanosoma brucei, STIB 795) and above 41.7 µM in data set [2].
Take `CN1C=C/C(=C\C=C2/C=Nc3ccccc32)c2ccccc21`: the IC50 in data set [1] (Trypanosoma brucei, STIB 795) is 0.311 µM; in data set [2], above 4.17 µM.
For `c1ccc(Nc2nc(-c3ccccn3)cs2)nc1`, in that order: 0.718 µM and above 10.4 µM.
For `N=c1n(CCOc2ccccc2)c2ccccc2n1Cc1ccc(Cl)cc1`, the half-inhibitory concentration (IC50) is 6.63 µM in data set [1] (Trypanosoma brucei, STIB 795) and above 41.7 µM in data set [2].
As to `CC1CCC2C(=O)N(c3ccc(Cc4ccncc4)cc3)C(=O)C2C1` (stereo unspecified), the concentration for half-maximal inhibition (IC50) in data set [1] is 5.4 µM; in data set [1] (Trypanosoma brucei, STIB 795), 5.32 µM; in data set [2] it was above 41.7 µM.
Turning to `Cc1ccsc1/C=C(\C(=O)NCc1cccnc1)S(=O)(=O)c1ccccc1`, the IC50 was 5.29 µM in data set [1] (Trypanosoma brucei, STIB 795) and above 20.8 µM in data set [2].
The corresponding values for `CN(C)CCn1c2ccccc2c2cnc(N)c(C#N)c21` are 3.62 µM and above 4.17 µM.
The corresponding values for `C/C(=N\NC(=O)c1cccc(I)c1)c1ccc(O)cc1O` are 1.92 µM and 3.73 µM.
As for `COc1ccccc1-c1nc(SCC(=O)c2ccc(O)c(O)c2)n[nH]1`, the IC50 in data set [1] (Trypanosoma brucei, STIB 795) was 2.69 µM; in data set [2], above 41.7 µM.
The corresponding values for `CN(C)c1ccc(/C=C/c2cc(-c3ccccc3)o[n+]2C)cc1` are 0.133 µM and above 2.08 µM.
The corresponding values for `CN(C)c1ccc(/C=C/c2cc(-c3ccccc3)n(-c3ccccc3)[n+]2C)cc1` are 0.68 µM and above 20.8 µM.
Regarding `Cn1c(=N)n(CC(=O)c2cc(C(C)(C)C)c(O)c(C(C)(C)C)c2)c2ccccc21`, the IC50 in data set [1] was 2.62 µM; in data set [1] (Trypanosoma brucei, STIB 795) it was 4.57 µM; in data set [2] it was above 20.8 µM.
Turning to `COC(=O)N/N=C\c1ccc(-c2ccccc2Cl)o1`, the IC50 was 1.95 µM in data set [1] (Trypanosoma brucei, STIB 795) and above 41.7 µM in data set [2].
Regarding `CCOC(=O)C(=Cc1cc(=O)c(OC)co1)C(=O)OCC`, the 50% inhibitory concentration (IC50) in data set [1] (Trypanosoma brucei, STIB 795) is 5.5 µM; in data set [2] it was above 20.8 µM.
The corresponding values for `CN(C)CCCOC1=Cc2ccccc2Cc2ccccc21` are 6.6 µM and above 41.7 µM.
Regarding `Cc1c(-c2cccc(NC(=O)c3cccs3)c2)nc2ncccn12`, the half-inhibitory concentration (IC50) was 5.18 µM in data set [1] (Trypanosoma brucei, STIB 795) and above 41.7 µM in data set [2].
For `O=S(=O)(Nc1cccc2cccnc12)c1ccccc1O`, in that order: 0.521 µM and above 10.4 µM.
The corresponding values for `COc1ccc(C/C(N)=N/OC(=O)c2cccs2)cc1OC` are 4.78 µM and above 41.7 µM.
The corresponding values for `CC[n+]1c(/C=C/c2ccc(N(C)C)cc2)ccn1-c1ccccc1` are 0.536 µM and above 20.8 µM.
Regarding `COCCN1CSC(=S)N(Cc2ccco2)C1`, the half-maximal inhibitory concentration (IC50) in data set [1] (Trypanosoma brucei, STIB 795) is 4.84 µM; in data set [2], above 4.17 µM.
The corresponding values for `O=C(NCCCN1CCCC1)c1ccc(-c2ccccc2)s1` are 5.51 µM and above 20.8 µM.
For `CCN(Cc1ccccc1)S(=O)(=O)c1ncn[nH]1`, in that order: 3.38 µM and above 41.7 µM.
The corresponding values for `Cc1nn2c(=O)cc(-c3ccc(F)cc3)[nH]c2c1-c1ccccc1` are 0.913 µM and 2.42 µM.
Turning to `COc1cc2nc(NC3CCCc4ccccc43)nc(N)c2cc1OC` (stereo unspecified), the half-inhibitory concentration (IC50) in data set [1] (Trypanosoma brucei, STIB 795) is 4.75 µM; in data set [2], above 4.17 µM.
The corresponding values for `O=c1c(Oc2ccccc2Br)coc2cc(O)ccc12` are 4.46 µM and above 41.7 µM.
The corresponding values for `Cc1ccc(C23CC4CC(CC(NC(=O)NCCN(C)C)(C4)C2)C3)cc1` are 4.01 µM and above 20.8 µM.
Consider `CCOc1cc2c(cc1OCC)C(c1ccc(Cl)cc1)NCC2` (stereo unspecified), for which the concentration for half-maximal inhibition (IC50) was 5.64 µM in data set [1] (Trypanosoma brucei, STIB 795) and above 20.8 µM in data set [2].
